# Test results published in ChEMBL document CHEMBL4041539, “1,2,3-Triazole-nimesulide hybrid: Their design, synthesis and evaluation as potential anticancer agents” (Bioorg Med Chem Lett, 2017).
# Legend:
# HEK293 = assay: Cytotoxicity against HEK293 cells up to 10 uM after 48 hrs by MTT assay; format: cell-based; settings: human, hek293, 48 h
# DU-145 = assay: Growth inhibition of human DU145 cells after 48 hrs by MTT assay; format: functional, cell-based; settings: DU-145, 48 h
# HepG2 = assay: Growth inhibition of human HepG2 cells after 48 hrs by MTT assay; format: functional, cell-based; settings: HepG2, 48 h
# HeLa = assay: Growth inhibition of human HeLa cells after 48 hrs by MTT assay; format: functional, cell-based
# A549 = assay: Growth inhibition of human A549 cells after 48 hrs by MTT assay; format: functional, cell-based; settings: A549, 48 h
# [1] = biological target: 3',5'-cyclic-AMP phosphodiesterase 4B (Homo sapiens) (UniProt Q07343); assay: Inhibition of recombinant His-tagged PDE4B1 (unknown origin) expressed in baculovirus infected sf9 cells at 10 uM using cAMP as substrate preincubated for 15 mins followed by cAMP addition measured after 1 hr by PDE light HTS assay relative to control
# [2] = biological target: Prostaglandin G/H synthase 2 (Homo sapiens) (UniProt P35354); assay: Inhibition of human COX2 expressed in baculovirus infected sf9 microsomes at 10 uM using arachidonic acid as substrate preincubated for 15 mins followed by substrate addition by TMPD oxidation based assay relative to control
# Chain of Prostaglandin G/H synthase 2 (Homo sapiens) (P35354 whole entry, looked up): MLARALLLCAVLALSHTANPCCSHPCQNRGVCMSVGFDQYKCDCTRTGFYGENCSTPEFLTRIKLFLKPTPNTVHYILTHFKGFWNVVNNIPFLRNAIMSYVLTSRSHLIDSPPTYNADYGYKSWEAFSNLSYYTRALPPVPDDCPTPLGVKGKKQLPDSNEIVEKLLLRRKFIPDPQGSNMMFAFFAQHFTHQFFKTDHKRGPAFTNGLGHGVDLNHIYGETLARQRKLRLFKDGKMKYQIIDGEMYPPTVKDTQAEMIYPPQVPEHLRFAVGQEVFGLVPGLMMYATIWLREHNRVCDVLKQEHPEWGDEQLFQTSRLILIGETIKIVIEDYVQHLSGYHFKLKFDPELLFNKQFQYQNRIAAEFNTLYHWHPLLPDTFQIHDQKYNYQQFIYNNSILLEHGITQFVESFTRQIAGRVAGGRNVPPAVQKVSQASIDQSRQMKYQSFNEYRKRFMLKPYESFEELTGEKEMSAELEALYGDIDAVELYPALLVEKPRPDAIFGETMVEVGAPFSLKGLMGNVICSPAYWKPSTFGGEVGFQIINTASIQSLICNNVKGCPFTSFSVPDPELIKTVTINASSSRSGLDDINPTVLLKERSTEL
# Chain of 3',5'-cyclic-AMP phosphodiesterase 4B (Homo sapiens) (Q07343 whole entry): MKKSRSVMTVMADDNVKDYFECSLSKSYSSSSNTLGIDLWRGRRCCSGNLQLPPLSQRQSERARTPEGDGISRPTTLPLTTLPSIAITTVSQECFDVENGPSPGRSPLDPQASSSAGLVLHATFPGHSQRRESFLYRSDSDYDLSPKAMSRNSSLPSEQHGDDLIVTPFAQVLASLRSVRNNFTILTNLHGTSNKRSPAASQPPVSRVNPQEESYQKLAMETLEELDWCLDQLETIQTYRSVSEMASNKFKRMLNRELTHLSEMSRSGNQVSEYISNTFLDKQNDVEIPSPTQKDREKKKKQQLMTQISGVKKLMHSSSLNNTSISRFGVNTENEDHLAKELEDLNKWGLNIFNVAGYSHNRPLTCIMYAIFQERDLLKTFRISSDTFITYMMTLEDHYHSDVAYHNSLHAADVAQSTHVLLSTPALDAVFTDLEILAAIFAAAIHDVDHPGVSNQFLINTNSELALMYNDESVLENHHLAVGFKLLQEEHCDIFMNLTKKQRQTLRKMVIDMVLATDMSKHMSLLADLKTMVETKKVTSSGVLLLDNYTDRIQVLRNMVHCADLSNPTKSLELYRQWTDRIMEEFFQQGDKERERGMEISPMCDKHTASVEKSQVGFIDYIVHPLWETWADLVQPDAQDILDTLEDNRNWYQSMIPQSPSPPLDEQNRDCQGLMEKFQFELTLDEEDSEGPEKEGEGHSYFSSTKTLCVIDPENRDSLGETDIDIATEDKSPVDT
SMILES,Activity (HEK293),IC50 (DU-145),IC50 (HepG2),IC50 (HeLa),IC50 (A549),inhibition [1],inhibition [2]
CS(=O)(=O)Nc1ccc(-n2cc(-c3ccccc3)nn2)cc1Oc1ccccc1,Non-Toxic,14.2 µM,13.6 µM,21.9 µM,29.9 µM,–,–
Cc1ccc(OCc2cn(-c3ccc(NS(C)(=O)=O)c(Oc4ccccc4)c3)nn2)cc1,Non-Toxic,8.2 µM,13 µM,15.8 µM,8 µM,–,–
CS(=O)(=O)Nc1ccc([N+](=O)[O-])cc1Oc1ccccc1 [NIMESULIDE],–,–,35.2 µM,–,67.8 µM,52%,–
CS(=O)(=O)Nc1ccc(-n2cc(COc3ccccc3Cl)nn2)cc1Oc1ccccc1,Non-Toxic,21.1 µM,25.3 µM,38.6 µM,53.8 µM,–,–
CS(=O)(=O)Nc1ccc(-n2cc(COc3ccc([N+](=O)[O-])cc3)nn2)cc1Oc1ccccc1,Non-Toxic,7.2 µM,–,–,6.6 µM,70.2%,–
Cc1cc(OCc2cn(-c3ccc(NS(C)(=O)=O)c(Oc4ccccc4)c3)nn2)ccc1Cl,Non-Toxic,5.9 µM,9.8 µM,7.9 µM,6.7 µM,67.5%,–
CS(=O)(=O)Nc1ccc(-n2cc(COc3ccc(Cl)cc3)nn2)cc1Oc1ccccc1,Non-Toxic,6.4 µM,7.5 µM,7.8 µM,7.1 µM,62.8%,23%
CS(=O)(=O)Nc1ccc(-n2cc(COc3ccc4ccccc4c3)nn2)cc1Oc1ccccc1,Non-Toxic,9.1 µM,19.5 µM,12.8 µM,8.3 µM,–,–
Cc1ccc(-c2cn(-c3ccc(NS(C)(=O)=O)c(Oc4ccccc4)c3)nn2)cc1,Non-Toxic,11.2 µM,18.3 µM,–,–,–,–
